Legend:
Format in all cases: functional
[1] = system: MOLT-4; experiment: Cytotoxicity against human MOLT4 cells assessed as growth inhibition after 48 hrs by sulforhodamine B assay; conditions: MOLT-4, 48 h; for CC50: read-out: LC50 (the source's name)
[2] = system: NCI-H226; experiment: Cytotoxicity against human NCI-H226 cells assessed as growth inhibition after 48 hrs by sulforhodamine B assay; conditions: NCI-H226, 48 h
[3] = system: SNB-19; experiment: Cytotoxicity against human SNB19 cells assessed as growth inhibition after 48 hrs by sulforhodamine B assay; conditions: SNB-19, 48 h; for CC50: read-out: LC50 (the source's name)
[4] = system: UACC-257; experiment: Cytotoxicity against human UACC257 cells assessed as growth inhibition after 48 hrs by sulforhodamine B assay; conditions: UACC-257, 48 h
[5] = system: TK-10; experiment: Cytotoxicity against human TK10 cells assessed as growth inhibition after 48 hrs by sulforhodamine B assay; conditions: TK-10, 48 h
[6] = system: MCF7; experiment: Cytotoxicity against human MCF7 cells assessed as growth inhibition after 48 hrs by sulforhodamine B assay; conditions: MCF7, 48 h
[7] = system: CCRF-CEM; experiment: Cytotoxicity against human CCRF-CEM cells assessed as cell growth at 0.01 uM after 48 hrs by sulforhodamine B assay relative to control; conditions: read-out: Activity
[8] = system: 786-0; experiment: Cytotoxicity against human 786-0 cells assessed as cell growth at 0.01 uM after 48 hrs by sulforhodamine B assay relative to control; conditions: 786-0, 48 h, read-out: Activity
[9] = system: NCI/ADR-RES; experiment: Cytotoxicity against human NCI/ADR-RES cells assessed as cell growth at 0.01 uM after 48 hrs by sulforhodamine B assay relative to control; conditions: read-out: Activity
[10] = system: IGROV-1; experiment: Cytotoxicity against human IGROV1 cells assessed as cell growth at 0.01 uM after 48 hrs by sulforhodamine B assay relative to control; conditions: IGROV-1, 48 h, read-out: Activity
[11] = system: U-251; experiment: Cytotoxicity against human U251 cells assessed as cell growth at 0.01 uM after 48 hrs by sulforhodamine B assay relative to control; conditions: U-251, 48 h, read-out: Activity
[12] = system: NCI-H322M; experiment: Cytotoxicity against human NCI-H322M cells assessed as cell growth at 0.01 uM after 48 hrs by sulforhodamine B assay relative to control; conditions: read-out: Activity
[13] = system: HOP-62; experiment: Cytotoxicity against human HOP62 cells assessed as cell growth at 0.01 uM after 48 hrs by sulforhodamine B assay relative to control; conditions: HOP-62, 48 h, read-out: Activity
[14] = system: NCI-H522; experiment: Cytotoxicity against human NCI-H522 cells assessed as cell growth at 0.1 uM after 48 hrs by sulforhodamine B assay relative to control; conditions: NCI-H522, 48 h, read-out: Activity
[15] = system: SNB-19; experiment: Cytotoxicity against human SNB19 cells assessed as cell growth at 0.1 uM after 48 hrs by sulforhodamine B assay relative to control; conditions: SNB-19, 48 h, read-out: Activity
[16] = system: IGROV-1; experiment: Cytotoxicity against human IGROV1 cells assessed as cell growth at 0.1 uM after 48 hrs by sulforhodamine B assay relative to control; conditions: IGROV-1, 48 h, read-out: Activity
[17] = system: TK-10; experiment: Cytotoxicity against human TK10 cells assessed as cell growth at 0.1 uM after 48 hrs by sulforhodamine B assay relative to control; conditions: TK-10, 48 h, read-out: Activity
[18] = system: HL-60(TB); experiment: Cytotoxicity against human HL-60(TB) cells assessed as cell growth at 1 uM after 48 hrs by sulforhodamine B assay relative to control; conditions: HL-60, 48 h, read-out: Activity
[19] = system: NCI-H322M; experiment: Cytotoxicity against human NCI-H322M cells assessed as cell growth at 1 uM after 48 hrs by sulforhodamine B assay relative to control; conditions: read-out: Activity
[20] = system: HCC 2998; experiment: Cytotoxicity against human HCC2998 cells assessed as cell growth at 1 uM after 48 hrs by sulforhodamine B assay relative to control; conditions: HCC 2998, 48 h, read-out: Activity
[21] = system: SNB-19; experiment: Cytotoxicity against human SNB19 cells assessed as cell growth at 1 uM after 48 hrs by sulforhodamine B assay relative to control; conditions: SNB-19, 48 h, read-out: Activity
[22] = system: T47D; experiment: Cytotoxicity against human T47D cells assessed as cell growth at 1 uM after 48 hrs by sulforhodamine B assay relative to control; conditions: read-out: Activity
[23] = system: RPMI-8226; experiment: Cytotoxicity against human RPMI8226 cells assessed as cell growth at 10 uM after 48 hrs by sulforhodamine B assay relative to control; conditions: RPMI-8226, 48 h, read-out: Activity
[24] = system: UACC-257; experiment: Cytotoxicity against human UACC257 cells assessed as cell growth at 10 uM after 48 hrs by sulforhodamine B assay relative to control; conditions: UACC-257, 48 h, read-out: Activity
[25] = system: ACHN; experiment: Cytotoxicity against human ACHN cells assessed as cell growth at 10 uM after 48 hrs by sulforhodamine B assay relative to control; conditions: read-out: Activity
[26] = system: PC-3; experiment: Cytotoxicity against human PC3 cells assessed as cell growth at 10 uM after 48 hrs by sulforhodamine B assay relative to control; conditions: PC-3, 48 h, read-out: Activity
[27] = system: MDA-MB-468; experiment: Cytotoxicity against human MDA-MB-468 cells assessed as cell growth at 10 uM after 48 hrs by sulforhodamine B assay relative to control; conditions: MDA-MB-468, 48 h, read-out: Activity
[28] = system: HL-60(TB); experiment: Cytotoxicity against human HL-60(TB) cells assessed as cell growth at 100 uM after 48 hrs by sulforhodamine B assay relative to control; conditions: HL-60, 48 h, read-out: Activity
[29] = system: MOLT-4; experiment: Cytotoxicity against human MOLT4 cells assessed as cell growth at 100 uM after 48 hrs by sulforhodamine B assay relative to control; conditions: MOLT-4, 48 h, read-out: Activity
[30] = system: RPMI-8226; experiment: Cytotoxicity against human RPMI8226 cells assessed as cell growth at 100 uM after 48 hrs by sulforhodamine B assay relative to control; conditions: RPMI-8226, 48 h, read-out: Activity
[31] = system: HCT-15; experiment: Cytotoxicity against human HCT15 cells assessed as cell growth at 100 uM after 48 hrs by sulforhodamine B assay relative to control; conditions: HCT-15, 48 h, read-out: Activity
[32] = system: SF-268; experiment: Cytotoxicity against human SF268 cells assessed as cell growth at 100 uM after 48 hrs by sulforhodamine B assay relative to control; conditions: SF-268, 48 h, read-out: Activity
[33] = system: M14; experiment: Cytotoxicity against human M14 cells assessed as cell growth at 100 uM after 48 hrs by sulforhodamine B assay relative to control; conditions: M14, 48 h, read-out: Activity
[34] = system: MDA-MB-435; experiment: Cytotoxicity against human MDA-MB-435 cells assessed as cell growth at 100 uM after 48 hrs by sulforhodamine B assay relative to control; conditions: MDA-MB-435, 48 h, read-out: Activity
[35] = system: SN12C; experiment: Cytotoxicity against human SN12C cells assessed as cell growth at 100 uM after 48 hrs by sulforhodamine B assay relative to control; conditions: read-out: Activity
[36] = system: NCI-H23; experiment: Cytotoxicity against human NCI-H23 cells assessed as cell growth at 10 uM after 48 hrs by sulforhodamine B assay relative to control; conditions: NCI-H23, 48 h, read-out: Activity

## COc1cc(C(=O)/C=C/c2cc(-c3cc(OC)c(OC)c(OC)c3)n[nH]2)cc(OC)c1OC
[1]
  TGI: 8.95 µM
  CC50: > 100 µM
[2]
  TGI: 3.05 µM
[3]
  TGI: 3.69 µM
  CC50: 8.2 µM
[4]
  LC50: 5.71 µM
  TGI: 2.99 µM
[5]
  LC50: 5.34 µM
  TGI: 2.8 µM
[6]
  LC50: 5.22 µM
  TGI: 2.07 µM
[7]
  growth at 0.01 µM: 96%
[8]
  growth at 0.01 µM: 101%
[9]
  growth at 0.01 µM: 105%
[10]
  growth at 0.01 µM: 104%
[11]
  growth at 0.01 µM: 96%
[12]
  growth at 0.01 µM: 96%
[13]
  growth at 0.01 µM: 97%
[14]
  growth at 0.1 µM: 103%
[15]
  growth at 0.1 µM: 90%
[16]
  growth at 0.1 µM: 103%
[17]
  growth at 0.1 µM: 109%
[18]
  growth at 1 µM: 81%
[19]
  growth at 1 µM: 89%
[20]
  growth at 1 µM: 99%
[21]
  growth at 1 µM: 82%
[22]
  growth at 1 µM: 57%
[23]
  growth at 10 µM: -38%
[24]
  growth at 10 µM: -93%
[25]
  growth at 10 µM: -97%
[26]
  growth at 10 µM: -69%
[27]
  growth at 10 µM: -90%
[28]
  growth at 100 µM: -33%
[29]
  growth at 100 µM: -15%
[30]
  growth at 100 µM: -26%
[31]
  growth at 100 µM: -72%
[32]
  growth at 100 µM: -75%
[33]
  growth at 100 µM: -88%
[34]
  growth at 100 µM: -83%
[35]
  growth at 100 µM: -97%

## COc1cc(-c2cc(/C=C/C(=O)c3ccc(Cl)c(Cl)c3)[nH]n2)cc(OC)c1OC
[1]
  TGI: 40.6 µM
  CC50: > 100 µM
[2]
  LC50 (concentration killing 50% of cells): > 100 µM
  TGI: > 100 µM
[3]
  TGI: > 100 µM
  CC50: > 100 µM
[4]
  LC50: > 100 µM
  TGI: 74 µM
[5]
  LC50: > 100 µM
  TGI: 43.2 µM
[6]
  LC50: > 100 µM
  TGI: > 100 µM
[7]
  growth at 0.01 µM: 98%
[8]
  growth at 0.01 µM: 95%
[9]
  growth at 0.01 µM: 100%
[10]
  growth at 0.01 µM: 97%
[11]
  growth at 0.01 µM: 97%
[12]
  growth at 0.01 µM: 89%
[13]
  growth at 0.01 µM: 99%
[14]
  growth at 0.1 µM: 89%
[15]
  growth at 0.1 µM: 92%
[16]
  growth at 0.1 µM: 98%
[17]
  growth at 0.1 µM: 91%
[18]
  growth at 1 µM: 90%
[19]
  growth at 1 µM: 94%
[20]
  growth at 1 µM: 102%
[21]
  growth at 1 µM: 90%
[22]
  growth at 1 µM: 62%
[23]
  growth at 10 µM: -7%
[36]
  growth at 10 µM: 79%
[24]
  growth at 10 µM: 66%
[25]
  growth at 10 µM: 67%
[26]
  growth at 10 µM: 39%
[27]
  growth at 10 µM: -13%
[28]
  growth at 100 µM: -33%
[29]
  growth at 100 µM: -15%
[30]
  growth at 100 µM: -25%
[32]
  growth at 100 µM: -15%
[33]
  growth at 100 µM: 20%
[34]
  growth at 100 µM: 6%
[35]
  growth at 100 µM: 11%

— ChEMBL document CHEMBL4138123, “Design, synthesis and biological evaluation of novel pyrazolochalcones as potential modulators of PI3K/Akt/mTOR pathway and inducers of apoptosis in breast cancer cells” (Eur J Med Chem, 2017)
